Test results reported in ChEMBL document CHEMBL1137454, “Natural bromophenols from the marine red alga Polysiphonia urceolata (Rhodomelaceae): structural elucidation and DPPH radical-scavenging activity” (Bioorg Med Chem, 2007).

Assay: DPPH radical scavenging activity relative to control
Assay type: functional

| SMILES | IC50 |
| --- | --- |
| Cc1cc(C(C)(C)C)c(O)c(C(C)(C)C)c1 [BUTYLATED HYDROXYTOLUENE] | 83.8 µM |
| Oc1cc(CCc2cc(O)c(O)c(Br)c2)cc(Br)c1O | 19.6 µM |
| CCCCOC(=O)Cc1cc(Br)c(O)c(Br)c1 | 16.1 µM |
| CC(=O)/C=C/c1cc(O)c(O)c(Br)c1 | 9.67 µM |
| O=C(O)C(Cc1cc(O)c(O)c(Br)c1)c1cc(Br)c(O)c(Br)c1 (stereo not given) | 21.9 µM |
